Here are results for 11 molecules from ChEMBL document CHEMBL1201862, “PubChem BioAssay data set” (2004).

Test systems include HCT-15; NCI-H23; UACC-257; MDA-MB-435; NCI-H522; UO-31; NCI/ADR-RES; SNB-75; K562; U-251; MDA-N; IGROV-1; EKVX; TK-10; NCI-H460; SK-OV-3; PC-3; HCT-116; HCC 2998; SR.
Holding throughout (test): NCI anticancer screen, dose series, 48 h

Each structure is given as a SMILES string.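 Where inhibition never reached the appropriate level, the endpoint shown equals the highest concentration tested. Otherwise, values were interpolated linearly from a five-concentration, 48-hour dose response in 96-well plates. Here, GI50 denotes the concentration required for 50% inhibition of growth.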 Calls of active or inactive are those of the source. Rule as the data show it: active = GI50 up to about 1.1 µM and inactive = higher. A value given as a limit tells only on which side of the number the result lay.

`O=C(NNS(=O)(=O)c1ccccc1)c1cccnc1`: the GI50 in the assay with HCT-15 is over 100 µM; with NCI-H23, > 100 µM (inactive); with UACC-257 it was > 100 µM (inactive); with MDA-MB-435 it was > 100 µM (inactive); with NCI-H522 it was > 100 µM (inactive); in the assay on UO-31, > 100 µM (inactive). Also, the GI50 with NCI/ADR-RES, with SNB-75, in the assay with K562, in the assay on U-251, in the assay on MDA-N and in the assay with IGROV-1 was > 100 µM (inactive) throughout. Besides, the GI50 with EKVX, with TK-10, in the assay on NCI-H460, with SK-OV-3, with PC-3 and with HCT-116 was > 100 µM (inactive) each time. In addition, in the assay with HCC 2998, the GI50 was > 100 µM (inactive).

In the case of `O=C1NC(=S)NC(=O)C1C(c1ccccc1[N+](=O)[O-])C1C(=O)NC(=S)NC1=O.c1ccncc1`, the GI50 is over 100 µM in the assay on HCT-15; > 100 µM (inactive) in the assay with NCI-H23; > 100 µM (inactive) in the assay on UACC-257; > 100 µM (inactive) with MDA-MB-435; > 100 µM (inactive) in the assay with NCI-H522; > 100 µM (inactive) in the assay with UO-31. Also, the GI50 with NCI/ADR-RES, in the assay with K562, with U-251, with MDA-N, in the assay on TK-10 and in the assay with NCI-H460 was > 100 µM (inactive) each time. Besides, the GI50 in the assay with PC-3 and in the assay on HCT-116 was > 100 µM (inactive) in each case.

For the molecule `COC(=O)[C@@H](NS(=O)(=O)CC12CCC(CC1)C2(C)C)C(C)(C)C`, the GI50 is over 100 µM with HCT-15; > 100 µM (inactive) in the assay on NCI-H23; 23.3 µM (inactive) in the assay on SR; > 100 µM (inactive) in the assay with UACC-257; > 100 µM (inactive) with MDA-MB-435; > 100 µM (inactive) with NCI-H522. Also, the GI50 in the assay on UO-31, in the assay with NCI/ADR-RES, in the assay with SNB-75, with K562, with U-251 and with MDA-N was > 100 µM (inactive) in each case. Also, the GI50 with IGROV-1, with EKVX, in the assay on TK-10, in the assay with NCI-H460, in the assay on SK-OV-3 and with HCT-116 was > 100 µM (inactive) throughout. The GI50 with HCC 2998 was > 100 µM (inactive).

With `Cn1c(=O)c2c(nc3n2CC(=O)N3CCCCl)n(C)c1=O`, the GI50 in the assay on HCT-15 was over 100 µM; in the assay with NCI-H23, > 100 µM (inactive); in the assay with UACC-257, > 100 µM (inactive); in the assay with MDA-MB-435, > 100 µM (inactive); in the assay with UO-31 it was > 100 µM (inactive); in the assay with NCI/ADR-RES it was > 100 µM (inactive). Besides, the GI50 in the assay with SNB-75, with K562, in the assay on U-251, with MDA-N, with IGROV-1 and in the assay on EKVX was > 100 µM (inactive) in each case. Also, the GI50 in the assay on TK-10, in the assay on NCI-H460, in the assay with SK-OV-3, in the assay on PC-3, with HCT-116 and with HCC 2998 was > 100 µM (inactive) throughout.

On to `NC(=O)CCC(CCC(N)=O)(CCC(N)=O)[N+](=O)[O-]`, for which the GI50 was over 100 µM with HCT-15; > 100 µM (inactive) in the assay with NCI-H23; > 100 µM (inactive) with UACC-257; > 100 µM (inactive) with MDA-MB-435; 65.9 µM (inactive) with NCI-H522; > 100 µM (inactive) in the assay on UO-31. The GI50 in the assay on NCI/ADR-RES, in the assay on SNB-75, with U-251, in the assay on MDA-N, with IGROV-1 and in the assay with EKVX was > 100 µM (inactive) in each case. Besides, the GI50 in the assay on TK-10, with NCI-H460, in the assay with SK-OV-3, in the assay on PC-3 and with HCT-116 was > 100 µM (inactive) in each case.

Take `Clc1ccc2c(c1)CC1C[N+]3=C(CCCC3)C1=C2` (configuration not stated): the GI50 is over 100 µM in the assay on HCT-15; 69 µM (inactive) with NCI-H23; 43.9 µM (inactive) in the assay with UACC-257; 54.2 µM (inactive) in the assay with MDA-MB-435; 47.4 µM (inactive) in the assay with NCI-H522; > 100 µM (inactive) in the assay with UO-31. For the same molecule, the GI50 in the assay with NCI/ADR-RES was > 100 µM (inactive); in the assay on SNB-75, 52 µM (inactive); in the assay with K562, 75.3 µM (inactive); with U-251 it was 34 µM (inactive); in the assay on MDA-N, > 100 µM (inactive); in the assay with IGROV-1, > 100 µM (inactive). Besides, the GI50 is 78.7 µM (inactive) in the assay on EKVX; 72.8 µM (inactive) with TK-10; 40.1 µM (inactive) in the assay with NCI-H460; > 100 µM (inactive) in the assay on SK-OV-3; 60.5 µM (inactive) in the assay on PC-3; > 100 µM (inactive) in the assay with HCT-116.

Turning to `Nc1ccc(C23CC4CC(C2)CC(c2ccc(N)cc2)(C4)C3)cc1`, the GI50 with HCT-15 was 14.5 µM; with NCI-H23, 59.6 µM (inactive); in the assay with SR it was 14.6 µM (inactive); in the assay on UACC-257 it was 75.5 µM (inactive); with MDA-MB-435 it was 0.164 µM (active); in the assay on UO-31, 48.6 µM (inactive). The GI50 with NCI/ADR-RES was 56.8 µM (inactive); with K562, 14.6 µM (inactive); in the assay on U-251, 14.3 µM (inactive); in the assay on MDA-N, 37.7 µM (inactive); in the assay on IGROV-1, > 100 µM (inactive); with EKVX, 36.6 µM (inactive). Besides, the GI50 in the assay on TK-10 is > 100 µM (inactive); with NCI-H460, 37.2 µM (inactive); in the assay on HCT-116, 44.3 µM (inactive); in the assay on HCC 2998 it was 8.09 µM (inactive).

As to `COc1ccc2c(c1)CCCN1Cc3ccccc3CC21` (configuration not stated), the GI50 in the assay on HCT-15 is over 100 µM; in the assay on NCI-H23, > 100 µM (inactive); with UACC-257 it was 91.2 µM (inactive); in the assay with MDA-MB-435 it was 54.1 µM (inactive); in the assay with NCI-H522, > 100 µM (inactive); with UO-31, 44.7 µM (inactive). Further, the GI50 is > 100 µM (inactive) in the assay with NCI/ADR-RES; 44.7 µM (inactive) with SNB-75; 31.3 µM (inactive) in the assay with K562; 75.2 µM (inactive) in the assay on U-251; 38.2 µM (inactive) with MDA-N; 49.4 µM (inactive) with IGROV-1. Moreover, the GI50 is 98.4 µM (inactive) with EKVX; > 100 µM (inactive) in the assay on TK-10; 76 µM (inactive) in the assay on NCI-H460; > 100 µM (inactive) with SK-OV-3; 78.9 µM (inactive) in the assay with PC-3; 52.7 µM (inactive) in the assay with HCT-116. Further, the GI50 in the assay with HCC 2998 is 19.1 µM (inactive).

`CC1=NC(=Cc2cccc(Cl)c2)C(=O)N1n1c(-c2ccccc2)nc2ccccc2c1=O`: the GI50 was 39.3 µM in the assay with HCT-15; 25.6 µM (inactive) with NCI-H23; 25.2 µM (inactive) in the assay on SR; 28.6 µM (inactive) with UACC-257; 41 µM (inactive) in the assay with MDA-MB-435; 17.5 µM (inactive) in the assay with NCI-H522. For the same molecule, the GI50 is 39 µM (inactive) in the assay on UO-31; 35.9 µM (inactive) in the assay with SNB-75; 41.6 µM (inactive) in the assay on K562; 30.4 µM (inactive) in the assay with MDA-N; 23.2 µM (inactive) in the assay on IGROV-1; 21.2 µM (inactive) in the assay on EKVX. Besides, the GI50 with TK-10 is 50.6 µM (inactive); with NCI-H460, 19.3 µM (inactive); in the assay with SK-OV-3, 37.8 µM (inactive); in the assay with PC-3, 31.3 µM (inactive); with HCT-116, 36.5 µM (inactive); in the assay with HCC 2998, 24.5 µM (inactive).

For `O=C1[C@@H]2C[C@@H](O)CN2C(=O)c2ccccc2N1CCCO`, the GI50 is over 100 µM in the assay on HCT-15; > 100 µM (inactive) in the assay on UACC-257; > 100 µM (inactive) in the assay with MDA-MB-435; > 100 µM (inactive) in the assay on NCI-H522; > 100 µM (inactive) with UO-31; > 100 µM (inactive) with NCI/ADR-RES. For the same molecule, the GI50 with SNB-75, in the assay on K562, with U-251, in the assay on MDA-N, with IGROV-1 and with EKVX was > 100 µM (inactive) in each case. Further, the GI50 in the assay on TK-10, in the assay with NCI-H460, with SK-OV-3, in the assay with PC-3 and in the assay with HCT-116 was > 100 µM (inactive) in each case.

For `O=S(=O)(O)c1ccc(O)c(/N=N/c2c(O)ccc3ccccc23)c1`, the GI50 in the assay on HCT-15 is over 100 µM; in the assay on NCI-H23, > 100 µM (inactive); in the assay with UACC-257, > 100 µM (inactive); in the assay with MDA-MB-435, > 100 µM (inactive); with NCI-H522 it was > 100 µM (inactive); in the assay with UO-31, > 100 µM (inactive). Further, the GI50 in the assay with NCI/ADR-RES is > 100 µM (inactive); in the assay on SNB-75, > 100 µM (inactive); with K562 it was > 100 µM (inactive); in the assay with U-251 it was 73.6 µM (inactive); in the assay with MDA-N, > 100 µM (inactive); in the assay with IGROV-1 it was > 100 µM (inactive). Moreover, the GI50 with EKVX, with TK-10, in the assay on SK-OV-3, in the assay on PC-3 and in the assay with HCT-116 was > 100 µM (inactive) in each case.
